PubChem BioAssay AID2060506 (Molecular Pharmacology Branch, DTP, NCI, 2025)

Test system: 598228-144-R-J1-PDC complex spheroid viability
Test: Anticancer human tumor 598228-144-R-J1-PDC patient-derived serous endometrial adenocarcinoma cell line growth inhibition [GQUAD]
Details: for IC50: curve of first compound; for viability, T/C: stronger effect = lower value; active = viability on the fitted dose curve at most 10% of control; inactive = the rest
Outline: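 Viability of tumor cells grown as complex spheroids with endothelial and stromal cells, exposed to drug combinations. Top concentration at or near clinical Cmax (else 10 microM), diluted in half-log increments.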

[1] = second compound 0.0316 µM, first compound 0.0316 µM
[2] = second compound 0.0316 µM, first compound 0.1 µM
[3] = second compound 0.0316 µM, first compound 0.316 µM
[4] = second compound 0.0316 µM, first compound 1 µM
[5] = second compound 0.0316 µM, first compound 3.16 µM
[6] = second compound 0.0316 µM, first compound 10 µM
[7] = second compound 0.1 µM, first compound 0.0316 µM
[8] = second compound 0.1 µM, first compound 0.1 µM
[9] = second compound 0.1 µM, first compound 0.316 µM
[10] = second compound 0.1 µM, first compound 1 µM
[11] = second compound 0.1 µM, first compound 3.16 µM
[12] = second compound 0.1 µM, first compound 10 µM
[13] = second compound 0.316 µM, first compound 0.0316 µM
[14] = second compound 0.316 µM, first compound 0.1 µM
[15] = second compound 0.316 µM, first compound 0.316 µM
[16] = second compound 0.316 µM, first compound 1 µM
[17] = second compound 0.316 µM, first compound 3.16 µM
[18] = second compound 0.316 µM, first compound 10 µM
[19] = second compound 1 µM, first compound 0.0316 µM
[20] = second compound 1 µM, first compound 0.1 µM
[21] = second compound 1 µM, first compound 0.316 µM
[22] = second compound 1 µM, first compound 1 µM
[23] = second compound 1 µM, first compound 3.16 µM
[24] = second compound 1 µM, first compound 10 µM
[25] = second compound 3.16 µM, first compound 0.0316 µM
[26] = second compound 3.16 µM, first compound 0.1 µM
[27] = second compound 3.16 µM, first compound 0.316 µM
[28] = second compound 3.16 µM, first compound 1 µM
[29] = second compound 3.16 µM, first compound 3.16 µM
[30] = second compound 3.16 µM, first compound 10 µM
[31] = second compound 10 µM, first compound 0.0316 µM
[32] = second compound 10 µM, first compound 0.1 µM
[33] = second compound 10 µM, first compound 0.316 µM
[34] = second compound 10 µM, first compound 1 µM
[35] = second compound 10 µM, first compound 3.16 µM
[36] = second compound 10 µM, first compound 10 µM
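Also: spheroids exposed to the agents for one week before reading.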
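For viability, T/C in this document: percent of vehicle DMSO control viability so 100% = untreated growth.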

Cc1cccc(N(C)C(=O)C2C(O)CCN2c2nc(C)cc(C(F)(F)F)c2C#N)c1 (stereo unspecified) + CN(C)c1ccc(Nc2c3ccc(NC(=O)CCN4CCCC4)cc3nc3cc(NC(=O)CCN4CCCC4)ccc23)cc1
3.95 µM: IC50 (second compound 10 µM)
> 10 µM: IC50 (second compound 0.0316 µM) | IC50 (second compound 0.1 µM) | IC50 (second compound 0.316 µM) | IC50 (second compound 1 µM) | IC50 (second compound 3.16 µM)
inactive: viability, T/C [1] 114% | viability, T/C [2] 96.9% | viability, T/C [3] 98.3% | viability, T/C [4] 105% | viability, T/C [5] 91.5% | viability, T/C [6] 103% | viability, T/C [7] 103% | viability, T/C [8] 107% | viability, T/C [9] 107% | viability, T/C [10] 108% | viability, T/C [11] 103% | viability, T/C [12] 84.9% | viability, T/C [13] 94% | viability, T/C [14] 124% | viability, T/C [15] 100% | viability, T/C [16] 125% | viability, T/C [17] 118% | viability, T/C [18] 113% | viability, T/C [19] 98.5% | viability, T/C [20] 114% | viability, T/C [21] 106% | viability, T/C [22] 101% | viability, T/C [23] 106% | viability, T/C [24] 111% | viability, T/C [25] 114% | viability, T/C [26] 106% | viability, T/C [27] 106% | viability, T/C [28] 95.2% | viability, T/C [29] 108% | viability, T/C [30] 86.4% | viability, T/C [31] 96.6% | viability, T/C [32] 78.7% | viability, T/C [33] 107% | viability, T/C [34] 86.5% | viability, T/C [35] 55.2% | viability, T/C [36] 29.1%

CCc1c2c(nc3ccc(O)cc13)-c1cc3c(c(=O)n1C2)COC(=O)[C@]3(O)CC + Cc1cnc(CNC(=O)c2c(=O)c3ccc(N4CCCN(C)CC4)nc3n3c2sc2ccccc23)cn1
inactive: viability, T/C (second compound 0.0316 µM, first compound 0.000999 µM) 62.5% | viability, T/C (second compound 0.0316 µM, first compound 0.00316 µM) 68% | viability, T/C (second compound 0.0316 µM, first compound 0.00999 µM) 55.6% | viability, T/C [1] 42.6% | viability, T/C (second compound 0.0316 µM, first compound 0.0999 µM) 27.3% | viability, T/C [3] 15.3% | viability, T/C (second compound 0.1 µM, first compound 0.000999 µM) 58.7% | viability, T/C (second compound 0.1 µM, first compound 0.00316 µM) 56.1% | viability, T/C (second compound 0.1 µM, first compound 0.00999 µM) 60.4% | viability, T/C [7] 34.1% | viability, T/C (second compound 0.1 µM, first compound 0.0999 µM) 22.6% | viability, T/C [9] 15% | viability, T/C (second compound 0.316 µM, first compound 0.000999 µM) 69.3% | viability, T/C (second compound 0.316 µM, first compound 0.00316 µM) 76.8% | viability, T/C (second compound 0.316 µM, first compound 0.00999 µM) 45.4% | viability, T/C [13] 47.3% | viability, T/C (second compound 0.316 µM, first compound 0.0999 µM) 21.5% | viability, T/C (second compound 1 µM, first compound 0.000999 µM) 68.5% | viability, T/C (second compound 1 µM, first compound 0.00316 µM) 63.5% | viability, T/C (second compound 1 µM, first compound 0.00999 µM) 64.2% | viability, T/C [19] 43.3% | viability, T/C (second compound 1 µM, first compound 0.0999 µM) 19.6% | viability, T/C (second compound 3.16 µM, first compound 0.000999 µM) 70.3% | viability, T/C (second compound 3.16 µM, first compound 0.00316 µM) 63% | viability, T/C (second compound 3.16 µM, first compound 0.00999 µM) 55.8% | viability, T/C [25] 27.9% | viability, T/C (second compound 10 µM, first compound 0.000999 µM) 54% | viability, T/C (second compound 10 µM, first compound 0.00316 µM) 39.5% | viability, T/C (second compound 10 µM, first compound 0.00999 µM) 44%
0.0149 µM: IC50 (second compound 0.1 µM)
active: viability, T/C [15] 2.76% | viability, T/C [21] 0.43% | viability, T/C (second compound 3.16 µM, first compound 0.0999 µM) 0.43% | viability, T/C [27] 0.31% | viability, T/C [31] 1.02% | viability, T/C (second compound 10 µM, first compound 0.0999 µM) 0.4% | viability, T/C [33] 0.35%
0.018 µM: IC50 (second compound 0.0316 µM)
0.0222 µM: IC50 (second compound 1 µM)
0.0164 µM: IC50 (second compound 0.316 µM)
0.0128 µM: IC50 (second compound 3.16 µM)
< 0.000999 µM: IC50 (second compound 10 µM)

CC1COCCN1c1cc(-c2ccnn2C)c2ccnc(-c3ccn[nH]3)c2n1 (stereo unspecified) + CN(C)c1ccc(Nc2c3ccc(NC(=O)CCN4CCCC4)cc3nc3cc(NC(=O)CCN4CCCC4)ccc23)cc1
0.721 µM: IC50 (second compound 1 µM)
0.0882 µM: IC50 (second compound 0.1 µM)
0.114 µM: IC50 (second compound 3.16 µM)
inactive: viability, T/C [1] 86% | viability, T/C [2] 45.6% | viability, T/C [3] 40.3% | viability, T/C [4] 43.3% | viability, T/C [5] 49.2% | viability, T/C [6] 45.2% | viability, T/C [7] 79.7% | viability, T/C [8] 46.1% | viability, T/C [9] 45.5% | viability, T/C [10] 40.5% | viability, T/C [11] 42.4% | viability, T/C [12] 43.5% | viability, T/C [13] 76.3% | viability, T/C [14] 51.3% | viability, T/C [15] 32.7% | viability, T/C [16] 43.9% | viability, T/C [17] 45.5% | viability, T/C [18] 34.6% | viability, T/C [19] 70.6% | viability, T/C [20] 63.8% | viability, T/C [21] 50.5% | viability, T/C [22] 50% | viability, T/C [23] 45.7% | viability, T/C [24] 38.9% | viability, T/C [25] 74.6% | viability, T/C [26] 49.6% | viability, T/C [27] 40% | viability, T/C [28] 40.6% | viability, T/C [29] 43.4% | viability, T/C [30] 25.9% | viability, T/C [31] 73.5% | viability, T/C [32] 29.5% | viability, T/C [33] 20.5% | viability, T/C [34] 29.7% | viability, T/C [35] 27.6% | viability, T/C [36] 14.9%
0.0879 µM: IC50 (second compound 0.0316 µM)
0.0935 µM: IC50 (second compound 0.316 µM)
0.0581 µM: IC50 (second compound 10 µM)
